“Also recorded” adds a separate entry of the source.
Columns and labels:
[1] = tested on: F-DVS™ Fl-Da N (frozen LD-culture); test: Acidifying activity assay of frozen concentrated F-DVS Fl-Da N culture stored at −50° C; assay type: cell-based; details: 3% w/w additive; for reduction in stability of culture without additive relative to culture stabilized by additive / loss of acidification activity of culture without additive: 13 days at −50° C; for reduction in stability of culture without additive relative to culture stabilized by additive: 0.01% inoculum, pH after 6 hrs at 30° C; for loss of acidification activity of culture without additive: corresponds to the pH difference; for ranking as cryoprotective during prolonged storage: storage extended to 21 or 49 days at −50° C
Experimental: In this example the stability measured by the acidification activity of a commercially produced LD-culture: F-DVS™ FI-Da N (Chr. Hansen A/S Item. No. 501691) was followed over a period of 6 months. The culture was produced and stored at −50° C. as described in the Materials and Methods section.
In contrast to what is common the first activity-measurement in this example was performed immediately after the culture were frozen as pellets in liquid nitrogen and followed by measurements after 1, 2, 12, 20 and 188 days of storage at −50° C.
(§1) The additive was added to the concentrate as a 30% sterile solution.
To simulate a situation similar to the industrial situation during the freezing process the additives and concentrates were mixed and stored for 5 hours at 8° C. and subsequently frozen in liquid nitrogen and further stored at −50° C. […] Culture activity in milk (LAB-milk) was measured the same day as the frozen cultures were formulated.
Culture activity in milk (LAB-milk) was measured the same day as the cultures were frozen and the activity was followed periodically up to 13 days.
Experimental details were as described in Example 10, with the exception that the activity was monitored for an extended period of time.

[2] = tested on: F-DVS™ CH-N 19 (frozen LD-culture); test: Acidifying activity assay of frozen concentrated F-DVS CH-N 19 culture; assay type: cell-based; details: Example 15; 1 day and 6 days at −50° C; 0,005% w/v inoculum, 6 hrs at 30° C; Na-formate 3% w/w
Experimental: The additives and concentrates were mixed for 30 minutes and subsequently 150 g of the two portions was frozen in liquid nitrogen. […] Culture activity in milk (heat sterilized LAB-milk) was measured.
The concentration of the various additives is given in the figures as % w/w per gram concentrated biomass.
Culture activity in milk (LAB-milk) was measured as acidification activity after 1 day (FIG. 13) and 6 days (FIG. 14) of storage at −50° C. The activity assay is based on a 0,005% w/v inoculum and 6 hrs incubation at 30° C.

[3] = tested on: liquid lactic acid-bacterial starter culture concentrates; details: 3% Na-formate; cited from earlier work
bacterial cultures = test: Cryoprotection of bacterial cultures, summary statements of the description; assay type: cell-based; details: summary of the experiments (examples 12 and 15 cited for adenosine)
[4] = tested on: freeze-dried LD-culture of Fl-Da N; test: Acidifying activity assay of freeze-dried Fl-Da N culture (FD-DVS); assay type: cell-based; details: 3% w/w additive, 0.005% inoculum
Experimental: Frozen culture was inoculated on a 0.01% (w/w) level in 200 ml UHT-sterilized reconstituted skimmed milk (RSM) containing 9.5% (w/w) solid matter and heated at 99° C. for 30 minutes (LAB-milk). The RSM was incubated at 30° C. for 6 h to permit acidification of the substrate material. The acidification activity was measured as described in Example 6: Analytical Procedure QAm-052, “acidification activity—UHT”, Chr. Hansen A/S (Denmark).
as §1
To simulate the situation encountered in the industrial situation during a freezing process, the additives and concentrates were mixed and stored for 5 hours at 8° C. and subsequently frozen in liquid nitrogen and further stored at −50° C. for one day before freeze-drying. After freeze-drying was completed the culture was stored at −50° C. until analysis. […] Culture activity in milk (LAB-rnilk) was measured after 7 days of storage at −50° C.
This example describes the stability of freeze-dried LDultures (FD-DVS) of Fl-Da-N formulated with and without a number of different additives, which may act as cryprotective agents. In the experiments the.concentration of the various additives were 3% w/w per gram concentrated biomass unless other vice indicated in the figures.
After fermentation, biomass was harvested and concentrated via centrifugation from fermentation broth of Fl-Da N as described in the Materials and Method section. The cell concentrate was divided into a number of portions and was added to each of the portions. To simulate the situation encountered in the industrial situation during a freezing process, the additives and concentrates were mixed and stored for 5 hours at 8° C. and subsequently frozen in liquid nitrogen and further stored at −50° C. for one day before freezedrying. After freeze-drying was completed the culture was stored at −50° C. until analysis. […] Culture activity in milk (LAB-milk) was measured by the acidifying activity assay after 1 day and after 2 months of storage at −50° C.

## Nc1nc2c(ncn2[C@@H]2O[C@H](COP(=O)(O)O)[C@@H](O)[C@H]2O)c(=O)[nH]1 [GMP, guanosine-5′-monophosphate]
[1]
  reduction in stability of culture without additive relative to culture stabilized by additive: 0,31 pH units
  loss of acidification activity of culture without additive: 50%
  ranking as cryoprotective during prolonged storage: better that IMP

## O=C[O-].[Na+] [Na-formate]
[2]
  effect on activity/stability of frozen culture: detrimental for frozen cultures; also recorded: detrimental to the activity of frozen cultures; also recorded: decrease the storage stability of frozen lactic acid bacterial starter culture
[3]
  effect on storage stability of liquid starter culture concentrates: effective to increase the storage stability of liquid lactic acid-bacterial starter culture concentrates

## Nc1ncnc2c1ncn2[C@@H]1O[C@H](COP(=O)(O)O)[C@@H](O)[C@H]1O [AMP, adenosine-5′-monophosphate]
[2]
  effect on activity/stability of frozen culture: harmful to the activity of the culture
Bacterial cultures
  effectiveness as cryoprotective agent: but not AMP is effective as a cryoprotective agent

## OC[C@H]1O[C@@H](n2cnc3c(O)ncnc32)[C@H](O)[C@@H]1O [Inosine, inosine]
[1]
  reduction in stability of culture without additive relative to culture stabilized by additive: 0.41 pH units
  loss of acidification activity of culture without additive: 60%
  ranking as cryoprotective during prolonged storage: better cryoprotective of F-DVS™ FI-Da N than GMP
[4]; one day of storage at −50° C
  effect on stability of freeze-dried culture: highly efficient to ensure stability of the culture
Bacterial cultures
  effectiveness as cryoprotective agent: very effective as a cryoprotective agent

## O=c1ccn([C@@H]2O[C@H](COP(=O)(O)O)[C@@H](O)[C@H]2O)c(=O)[nH]1 [UMP, uranosine-5′-monophosphate]
[4]; 2 months of storage at −50° C
  effect on stability of freeze-dried culture: preferred

## Nc1ncnc2c1ncn2[C@@H]1O[C@H](CO)[C@@H](O)[C@H]1O [adenosine, reference compound]
[2]
  effect on activity/stability of frozen culture: harmful to the activity of the culture
[4]; 2 months of storage at −50° C
  effect on stability of freeze-dried culture: harmful to the culture
[4]; one day of storage at −50° C
  effect on stability of freeze-dried culture: highly efficient to ensure stability of the culture
Bacterial cultures
  effectiveness as cryoprotective agent: appears to decrease the stability of bacterial cultures

## Nc1ccn([C@@H]2O[C@H](COP(=O)(O)O)[C@@H](O)[C@H]2O)c(=O)n1 [CMP, cytidine-5′-monophosphate]
[4]; 2 months of storage at −50° C
  effect on stability of freeze-dried culture: preferred
